Key:
Assay type in all cases: biochemical
PKC theta kinase = PKC theta kinase (Homo sapiens, UniProt Q04759); experiment: PKC theta kinase inhibition, coupled-enzyme NADH absorbance assay (Ki); conditions: 240 μM ATP, 18 nM PKC theta, 30° C.; read-out: Ki PKC theta
Method: (§1) An assay buffer solution was prepared which consisted of 100 mM HEPES (pH 7.5), 10 mM MgCl2, 25 mM NaCl, 0.1 mM EDTA and 0.01% Brij. […] To 60 μL of this enzyme buffer, in a 384 well plate, was added 2 μL of VRT stock solution in DMSO. The mixture was allowed to equilibrate for 10 mins at 30° C. […] Ki values were calculated from initial rate data by non-linear regression using the Prism software package (Prism 4.0a, Graphpad Software, San Diego, Calif.).

PKC delta kinase = PKC delta kinase (Homo sapiens, UniProt Q05655); experiment: PKC delta kinase inhibition, coupled-enzyme NADH absorbance assay (Ki); conditions: 150 μM ATP, 46 nM PKC delta, 30° C.; read-out: Ki PKC delta
Method: as §1, with “To 16” for “To 60”, “added 1” for “added 2”

PKC alpha kinase = PKC alpha kinase (Homo sapiens, UniProt P17252); experiment: PKC alpha kinase inhibition, coupled-enzyme NADH absorbance assay (Ki); conditions: 130 μM ATP, 4.5 nM PKC alpha, 30° C.; read-out: Ki PKC alpha
Method: An assay buffer solution was prepared which consisted of 100 mM HEPES (pH 7.5), 10 mM MgCl2, 25 mM NaCl, 0.1 mM EDTA, 100 μM CaCl2 and 0.01% Brij. […] To 16 μL of this enzyme buffer, in a 384 well plate, was added 1 μL of VRT stock solution in DMSO. The mixture was allowed to equilibrate for 10 mins at 30° C. The enzyme reaction was initiated by the addition of 16 μL stock ATP solution prepared in assay buffer to a final assay concentration of 130 μM. Initial rate data was determined from the rate of change of absorbance at 340 nm (corresponding to stoichiometric consumption of NADH) using a Molecular Devices Spectramax plate reader (Sunnyvale, Calif.) over 15 mins at 30° C. […] Ki values were calculated from initial rate data by non-linear regression using the Prism software package (Prism 4.0a, Graphpad Software, San Diego, Calif.).

Sequence of PKC delta kinase (Q05655 whole entry): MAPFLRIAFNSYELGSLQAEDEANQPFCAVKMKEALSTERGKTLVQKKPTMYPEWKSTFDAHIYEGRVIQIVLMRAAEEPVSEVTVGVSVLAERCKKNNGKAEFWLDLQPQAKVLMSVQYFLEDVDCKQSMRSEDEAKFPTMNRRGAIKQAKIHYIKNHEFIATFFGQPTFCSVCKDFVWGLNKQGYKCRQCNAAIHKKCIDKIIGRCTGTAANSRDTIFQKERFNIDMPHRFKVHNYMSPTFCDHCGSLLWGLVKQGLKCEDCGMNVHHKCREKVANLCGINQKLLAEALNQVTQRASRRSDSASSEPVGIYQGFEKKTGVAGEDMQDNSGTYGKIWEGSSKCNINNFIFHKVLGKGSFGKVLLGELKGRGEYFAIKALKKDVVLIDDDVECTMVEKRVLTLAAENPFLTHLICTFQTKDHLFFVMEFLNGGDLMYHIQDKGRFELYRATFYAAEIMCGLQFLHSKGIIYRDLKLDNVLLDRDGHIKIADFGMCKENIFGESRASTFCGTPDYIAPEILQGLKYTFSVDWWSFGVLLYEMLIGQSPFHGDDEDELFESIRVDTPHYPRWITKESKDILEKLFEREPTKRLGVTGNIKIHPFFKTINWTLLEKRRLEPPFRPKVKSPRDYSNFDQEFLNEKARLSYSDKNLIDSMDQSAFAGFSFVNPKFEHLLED
Sequence of PKC theta kinase (Q04759 whole entry): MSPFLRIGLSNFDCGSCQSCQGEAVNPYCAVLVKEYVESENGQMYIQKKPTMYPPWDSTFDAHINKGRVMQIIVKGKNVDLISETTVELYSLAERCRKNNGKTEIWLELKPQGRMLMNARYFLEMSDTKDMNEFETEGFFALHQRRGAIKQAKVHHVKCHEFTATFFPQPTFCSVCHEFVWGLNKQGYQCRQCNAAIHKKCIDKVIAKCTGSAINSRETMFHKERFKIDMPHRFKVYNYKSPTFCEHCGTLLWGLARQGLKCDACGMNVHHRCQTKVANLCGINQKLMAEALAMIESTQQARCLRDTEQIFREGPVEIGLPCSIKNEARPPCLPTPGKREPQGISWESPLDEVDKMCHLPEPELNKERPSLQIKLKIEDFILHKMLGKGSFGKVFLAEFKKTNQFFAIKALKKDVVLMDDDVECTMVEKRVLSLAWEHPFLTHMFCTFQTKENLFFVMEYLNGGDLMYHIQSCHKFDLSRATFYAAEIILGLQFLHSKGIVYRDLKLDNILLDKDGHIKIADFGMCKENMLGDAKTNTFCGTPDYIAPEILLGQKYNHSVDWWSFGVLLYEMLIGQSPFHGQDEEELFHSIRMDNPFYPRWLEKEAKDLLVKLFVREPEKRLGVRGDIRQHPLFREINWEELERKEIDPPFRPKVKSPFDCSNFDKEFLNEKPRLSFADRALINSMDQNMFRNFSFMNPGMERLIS

| Compound | Ki (PKC theta kinase) | Ki (PKC delta kinase) | Ki (PKC alpha kinase) |
| --- | --- | --- | --- |
| CC(F)c1cc(-c2ccnc3[nH]ncc23)cc(C(C)(C)CN)c1 (centres unmarked) [Compound 136] | < 50 nM | < 2800 nM | < 2800 nM |
| CC(C)(C#N)c1cc(-c2ccnc3[nH]ncc23)cc(N2CCNCC2)c1 [Compound 8] | < 500 nM | > 2800 nM |  |
| N#CC1(c2cccc(-c3ccnc4[nH]ncc34)c2)CCC1 [Compound 73] | < 500 nM | < 2800 nM | < 2800 nM |
| NCC1(c2cccc(-c3ccnc4[nH]ncc34)c2)CCC(F)(F)CC1 [Compound 181] | < 500 nM | < 2800 nM | < 2800 nM |
| Cc1cc(-c2ccnc3[nH]nc(Cl)c23)cc(C2(CN)CCC2)c1 [Compound 207] | < 50 nM | < 500 nM | < 500 nM |
| CCC(F)(CN)c1cc(C)cc(-c2ccnc3[nH]nc(C(F)(F)F)c23)c1 (centres unmarked) [Compound 293] | < 50 nM | < 500 nM | < 500 nM |
| N#CC1(c2cc(CCCO)cc(-c3ccnc4[nH]nc(C(F)(F)F)c34)c2)CC1 [Compound 312] | < 50 nM | < 2800 nM | < 500 nM |
| CCC(C)(CN)c1cc(CCCO)cc(-c2ccnc3[nH]nc(Cl)c23)c1 (centres unmarked) [Compound 208] | < 50 nM | < 500 nM | < 500 nM |
| CC(C)(CN)c1cc(-c2ccccc2)cc(-c2ccnc3[nH]ncc23)c1 [Compound 35] | < 2800 nM |  |  |
| N#CCC1(c2cccc(-c3ccnc4[nH]ncc34)c2)CNC1 [Compound 192] | < 50 nM | < 500 nM | < 500 nM |
| COc1ccc(CC(C)(CN)c2cccc(-c3ccnc4[nH]ncc34)c2)cc1 (centres unmarked) [Compound 174] | < 50 nM | < 500 nM | < 500 nM |
| CC(C)(C#N)c1cc(CCCO)cc(-c2ccnc3[nH]ncc23)c1 [Compound 78] | < 50 nM | < 2800 nM | < 2800 nM |
| C=CCc1cc(-c2ccnc3[nH]ncc23)cc(C(C)(C)CC#N)c1 [Compound 217] | < 2800 nM | > 2000 nM | > 1200 nM |
| N#CCC1(c2cccc(-c3ccnc4[nH]ncc34)c2)CCNC1 (centres unmarked) [Compound 200] | < 50 nM | < 500 nM | < 500 nM |
| CC(C)(C#N)c1cc(-c2ccnc3[nH]ncc23)cc(N2CCC2)c1 [Compound 11] | < 500 nM | > 2800 nM | > 2800 nM |
| CC#CC1(c2cc(C)cc(-c3ccnc4[nH]nc(C(F)(F)F)c34)c2)CNC(=O)O1 (centres unmarked) [Compound 295] | > 700 nM | > 1200 nM | > 1200 nM |
| CC(C#N)(CC1CC1)c1cccc(-c2ccnc3[nH]ncc23)c1 (centres unmarked) [Compound 80] | < 500 nM | > 2800 nM | < 2800 nM |
| CC(C#N)(c1cccc(-c2ccnc3[nH]ncc23)c1)C1CCCC1 (centres unmarked) [Compound 72] | < 2800 nM | > 2800 nM | > 2800 nM |
| Cc1n[nH]c2nccc(-c3cc(F)cc(C4(CN)CCC4)c3)c12 [Compound 262] | < 50 nM | < 500 nM | < 500 nM |
| CC#CCC(C)(CN)c1cccc(-c2ccnc3[nH]ncc23)c1 (centres unmarked) [Compound 155] | < 50 nM | < 50 nM | < 500 nM |
| NCC1(c2cc(F)cc(-c3ccnc4[nH]nc(Br)c34)c2)CCC1 [Compound 261] | < 50 nM | < 50 nM | < 50 nM |

| Compound | Ki (PKC theta kinase) | Ki (PKC delta kinase) | Ki (PKC alpha kinase) |
| --- | --- | --- | --- |
| CC(C)(C#N)c1cc(NCc2ccccc2)cc(-c2ccnc3[nH]ncc23)c1 [Compound 12] | < 2800 nM |  |  |
| Cc1cc(-c2ccnc3[nH]ncc23)cc(C(C)(C)C#N)c1 [Compound 5] | < 50 nM | < 2800 nM |  |
| Cc1cc(-c2ccnc3[nH]nc(C(F)(F)F)c23)cc(C2(CN)CCC2)c1 [Compound 215] | < 50 nM | < 500 nM | < 500 nM |
| CC(C)(C#N)c1cc(NCCCN)cc(-c2ccnc3[nH]ncc23)c1 [Compound 21] | < 500 nM | > 2800 nM | > 2800 nM |
| CCC1(c2cc(C)cc(-c3ccnc4[nH]nc(C(F)(F)F)c34)c2)CNC(=S)O1 (centres unmarked) [Compound 296] | < 50 nM | > 1200 nM | < 500 nM |
| Cc1cc(-c2ccnc3[nH]ncc23)cc(C2(CN)CCC2)c1 [Compound 145] | < 50 nM | < 2800 nM | < 2800 nM |
| CC(=O)N1CCN(c2cc(-c3ccnc4[nH]ncc34)cc(C(C)(C)C#N)c2)CC1 [Compound 7] | > 2800 nM | > 2800 nM |  |
| CC(C)(C#N)c1cc(NC2CCNCC2)cc(-c2ccnc3[nH]ncc23)c1 [Compound 20] | < 500 nM |  |  |
| CC(C)(CN)c1cc(-c2ccnc3[nH]ncc23)cc(N2CCCCC2)c1 [Compound 33] | > 2800 nM |  |  |
| Cc1cc(-c2ccnc3[nH]ncc23)cc(C2(CN)CCCC2)c1 [Compound 189] | < 50 nM |  | < 2800 nM |
| C/C=C/c1cc(CNC)cc(-c2ccnc3[nH]ncc23)c1 [Compound 60] | < 2800 nM |  |  |
| CC(C)(C#N)c1cc(-c2ccnc3[nH]ncc23)cc(N2CCCCC2)c1 [Compound 9] | < 2800 nM |  |  |
| CCCc1cc(-c2ccnc3[nH]nc(C(F)(F)F)c23)cc(C2(C#N)CC2)c1 [Compound 313] |  | > 1200 nM | > 1200 nM |
| CC(C)(C#N)c1cc(-c2ccnc3[nH]ncc23)cc(C2CCCCC2)c1 [Compound 58] | < 2800 nM |  |  |
| CC(C)(CN)c1cc(C2=CCCCC2)cc(-c2ccnc3[nH]ncc23)c1 [Compound 37] | < 2800 nM |  |  |
| CC(C)(C#N)c1cc(NC2CNC2)cc(-c2ccnc3[nH]ncc23)c1 [Compound 14] | < 500 nM |  |  |
| N#CCc1cccc(-c2ccnc3[nH]ncc23)c1 [Compound 23] | < 500 nM |  |  |
| CC(C)(C#N)c1cc(-c2ccnc3[nH]ncc23)cc(C(O)c2ccccc2)c1 (centres unmarked) [Compound 15] | < 2800 nM |  |  |
| O=C1CCc2ccc(-c3ccnc4[nH]ncc34)cc21 [Compound 28] | < 500 nM |  |  |
| CC(C)(C)OC(=O)NCCNc1cc(-c2ccnc3[nH]ncc23)cc(C(C)(C)C#N)c1 [Compound 81] | < 2800 nM |  |  |
| CNCc1cc(Br)cc(-c2ccnc3[nH]ncc23)c1 [Compound 25] | < 500 nM |  |  |

| Compound | Ki (PKC theta kinase) | Ki (PKC delta kinase) | Ki (PKC alpha kinase) |
| --- | --- | --- | --- |
| C=CCc1cc(CNC)cc(-c2ccnc3[nH]ncc23)c1 [Compound 63] | < 500 nM |  |  |
| OC1CCc2ccc(-c3ccnc4[nH]ncc34)cc21 (centres unmarked) [Compound 29] | > 2800 nM |  |  |
| N#CC1(c2cccc(-c3ccnc4[nH]ncc34)n2)CCNCC1 [Compound 2] | < 50 nM | < 500 nM |  |
| C#Cc1cc(-c2ccnc3[nH]ncc23)cc(C(C)(C)C#N)c1 [Compound 61] | < 500 nM |  |  |
| CC(C)(C#N)c1cccc(-c2ccnc3[nH]ncc23)c1 [Compound 4, 2-(3-(1H-pyrazolo[3,4-b]pyridin-4-yl)phenyl)-2-methylpropanenitrile] | < 50 nM | < 2800 nM |  |
| CC(C)(CN)c1cc(-c2ccc[nH]2)cc(-c2ccnc3[nH]ncc23)c1 [Compound 38] | < 500 nM |  |  |
| CC(C)(C#N)c1cc(Nc2ccccc2)cc(-c2ccnc3[nH]ncc23)c1 [Compound 10] | < 500 nM | > 2800 nM |  |
| C=C(C)c1cc(-c2ccnc3[nH]ncc23)cc(C(C)(C)C#N)c1 [Compound 65] | < 500 nM |  |  |
| CC(C)(C#N)c1cc(-c2ccccc2)cc(-c2ccnc3[nH]ncc23)c1 [Compound 53, 2-(5-(1H-pyrazolo[3,4-b]pyridin-4-yl)biphenyl-3-yl)-2-methylpropanenitrile] | < 2800 nM |  |  |
| N#CC1(c2cccc(-c3ccnc4[nH]ncc34)c2)CCNCC1 [Compound 6] | < 500 nM | < 2800 nM |  |
| CC(C)(C#N)c1cc(NCCCNC(=O)OCc2ccccc2)cc(-c2ccnc3[nH]ncc23)c1 [Compound 82] | < 2800 nM |  |  |
| CC(=O)c1cc(-c2ccnc3[nH]ncc23)cc(C(C)(C)C#N)c1 [Compound 24] | < 500 nM |  |  |
| CC(C)(C#N)c1cc(C(=O)c2ccccc2)cc(-c2ccnc3[nH]ncc23)c1 [Compound 16] | < 2800 nM |  |  |
| CC(C)(C#N)c1cc(-c2ccnc3n[nH]cc23)ccc1Br [Compound 83] | < 2800 nM |  |  |
| CC(C)C(O)c1cc(-c2ccnc3[nH]ncc23)cc(C(C)(C)CN)c1 (centres unmarked) [Compound 43] | < 2800 nM |  |  |
| O=C1CCc2cc(-c3ccnc4[nH]ncc34)ccc21 [Compound 26] | < 2800 nM |  |  |
| N#CC1(c2cccc(-c3ccnc4[nH]ncc34)n2)CCNC1 (centres unmarked) [Compound 3] | < 50 nM | < 500 nM |  |
| CC(C)(C#N)c1cc(C2=CCCCC2)cc(-c2ccnc3[nH]ncc23)c1 [Compound 56] | > 2800 nM |  |  |
| OC1CCc2cc(-c3ccnc4[nH]ncc34)ccc21 (centres unmarked) [Compound 27] | < 2800 nM |  |  |
| CCC(C#N)(CC)c1cccc(-c2ccnc3[nH]ncc23)c1 [Compound 68] | < 500 nM |  | < 2800 nM |

— patent publication US8173635B2, “Kinase inhibitors” (Vertex Pharmaceuticals Incorporated, priority 2007, dated 2012)
